Test results: US8735377B1, “Methods of treating herpes zoster” (priority 2010, dated 2014)

What was measured:
[1] = Plasma concentration of COL-3 in humans; format: in vivo; conditions: dose of about 10 to about 20 mg/day
Description: An example of a COL is 6-demethyl-6-deoxy-4-de(dimethylamino)tetracycline (COL-3). COL-3 is administered in doses of up to about 200 mg/day, preferably about 150 mg/day, more preferably about 100 mg/day, or in amounts that result in plasma concentrations of up to about 50 μg/ml, about 40 μg/ml or about 30 μg/ml. For example, a dose of about 10 to about 20 mg/day of COL-3 produces plasma concentrations in humans of about 1.0 μg/ml.

herpes zoster (shingles) = assay: Case report: patient on sub-antibacterial doxycycline hyclate who presented with shingles; format: in vivo, human; conditions: one patient
Description: The below Example summarizes an incidence using 20 mg doxycycline hyclate tablets administered twice a day.
A person (hereinafter “the patient”) had been taking generic Periostat® (20 mg doxycycline hyclate b.i.d.) for over a six month period when they presented with shingles. […] By this time, the patient had blistering and vesicular lesions, and lesions consisting of deep scabs on their face (e.g., upper cheek), neck and chest. All lesions presented on patient's left side without crossing the midline.
The patient also reported being lethargic, weak and dizzy.
The medical doctor who examined the patient was very surprised to hear that the lesions were not painful. They said that the lesions were at the stage where they typically cause intense pain. The doctor predicted that, even if the lesions were not painful at the moment, they would become very painful shortly, particularly since antiviral therapy would be initiated after 72 hours of the appearance of the characteristic lesions. Accordingly, the doctor prescribed the narcotic pain reliever Percocet®.
The doctor also prescribed VALTREX®, an antiherpetic medication, in a dose of a 1 gram tablet, taken 3 times a day for 7 days. The doctor advised that VALTREX® should have been started within 2 or 3 days of the first appearance of a lesion in order to effectively minimize pain.
The patient began taking the VALTREX®, as prescribed. […]

plasma concentration in humans [1]	Compound	pain reported by the patient throughout the course of shingles (herpes zoster (shingles); 20 mg b.i.d., no analgesic taken)	inhibition of the pain typically associated with lesions of shingles (herpes zoster (shingles); 20 mg tablets twice a day, taken for over six months before onset, VALTREX started over 96 hours after first lesion, no analgesic)
about 1.0 μg/ml	NC(=O)C1=C(O)C[C@@H]2C[C@@H]3Cc4cccc(O)c4C(=O)C3=C(O)[C@]2(O)C1=O [COL-3, 6-demethyl-6-deoxy-4-dedimethylaminotetracycline]	–	–
–	doxycycline hyclate	did not feel any pain whatsoever	virtually complete inhibition
